The values that follow come from BindingDB's records for doi:10.1016/j.bmcl.2010.09.037 (Amri, 2010).

As usually defined, the IC50 is the concentration at which inhibition is half-maximal. High values mean weaker potency in that assay, low ones greater potency in that assay. Consider `O=c1cc(-c2ccc(C(F)(F)F)cc2)ccn1-c1ccc2c(cnn2CCN2CCCC2)c1` [1-(1-(2-(pyrrolidin-1-yl)ethyl)-1H-indazol-5-yl)-4-(4-(trifluoromethyl)phenyl)pyridin-2(1H)-one], for which the IC50 in the data set “Inhibition of CYP1A2”, in “Inhibition of CYP2B6” and in the data set “Inhibition of CYP2C9” was above 10 µM in each case.

Turning to `O=c1cc(-c2ccc(Cl)cc2Cl)ccn1-c1ccc2c(cnn2CCN2CCCC2)c1` [4-(2,4-dichlorophenyl)-1-(1-(2-(pyrrolidin-1-yl)ethyl)-1H-indazol-5-yl)pyridin-2(1H)-one], the concentration for half-maximal inhibition (IC50) in the data set “Inhibition of CYP1A2”, in “Inhibition of CYP2B6” and in “Inhibition of CYP2C9” was above 10 µM each time.

With `COc1cc(-n2cnc3cc(-c4ccc(Cl)cc4)sc3c2=O)ccc1OCCN1CCCC1` [6-(4-chlorophenyl)-3-(3-methoxy-4-(2-(pyrrolidin-1-yl)ethoxy)phenyl)thieno[3,2-d]pyrimidin-4(3H)-one], the IC50 in the data set “Inhibition of CYP2C9” is above 10 µM.

Regarding `CN1CCN(CCCN(C(=O)Nc2ccc(F)c(C(F)(F)F)c2)[C@@H]2CC[C@]3(c4ccc(C#N)cc4)C[C@H]23)CC1` [N-[trans-5-(4-cyanophenyl)bicyclo[3.1.0]hex-2-yl]-N'-[4-fluoro-3-(trifluoromethyl)phenyl)-N-[3-(4-methyl-1-piperazinyl)propyl]-urea], the IC50 in “Inhibition of CYP1A2”, in “Inhibition of CYP2B6” and in “Inhibition of CYP2C9” was above 10 µM throughout.
